Laboratory results as given in ChEMBL document CHEMBL1137019, “Maintenance of therapeutic concentrations of caspofungin after temporary treatment interruption (48 hours) in a child with invasive aspergillosis” (Antimicrob Agents Chemother, 2007).
In brackets after ≈: the same amount, converted by molar mass.

Tests used:
Homo sapiens [1] = experiment: Plasma concentration in human at 5 to 100 mg, iv; assay type: ADME, organism-based; conditions: in vivo
[2] = Trough plasma concentration in child with invasive aspergillosis at 30 mg/day for 5 days measured on last day of therapy; assay type: ADME, organism-based; conditions: human, read-out: Cmin
[3] = Peak plasma concentration in child with invasive aspergillosis at 30 mg/day for 5 days measured on last day of therapy; assay type: ADME, organism-based; design: dose 30 mg/day; conditions: human
Homo sapiens [4] = experiment: Trough plasma concentration in child with invasive aspergillosis administered at 30 mg/day schedule for 5 days followed by 48 hrs temporary treatment interruption measured on first day of resumption of therapy; assay type: ADME, organism-based; conditions: in vivo
[5] = Peak plasma concentration in child with invasive aspergillosis administered at 30 mg/day schedule for 5 days followed by 48 hrs temporary treatment interruption measured on first day of resumption of therapy; assay type: ADME, organism-based; design: dose 30 mg/day; conditions: human
Aspergillus fumigatus = experiment: Antifungal activity against Aspergillus fumigatus; assay type: functional

Cp (Homo sapiens [1]): 1000 ng/mL | concentration at 120 h [2]: 6700 ng/mL | Cmax [3]: 11500 ng/mL | Cmin (Homo sapiens [4]): 1900 ng/mL | Cmax [5]: 5600 ng/mL | MIC (Aspergillus fumigatus): 0.5 µg/mL (≈ 0.457 µM)
Structure (SMILES): CC[C@H](C)C[C@H](C)CCCCCCCCC(=O)N[C@H]1C[C@@H](O)[C@@H](NCCN)NC(=O)[C@@H]2[C@@H](O)CCN2C(=O)[C@H]([C@H](O)CCN)NC(=O)[C@H]([C@H](O)[C@@H](O)c2ccc(O)cc2)NC(=O)[C@@H]2C[C@@H](O)CN2C(=O)[C@H]([C@@H](C)O)NC1=O [CASPOFUNGIN]
